From ChEMBL document CHEMBL4680223, “Development of bivalent triarylalkene- and cyclofenil-derived dual estrogen receptor antagonists and downregulators” (Eur J Med Chem, 2020)
≈ marks a conversion by molar mass, not a printed value. Calls of active or inactive are those of the source. The rule behind the calls is not given here.

Legend:
[1] = biological target: T1, Estrogen receptor beta (Homo sapiens, UniProt Q92731); experiment: Agonist activity at recombinant human GST-tagged ERbeta assessed as increase in fluorescein-labelled coactivator PGC1 peptide recruitment at 1 uM by LanthaScreen TR-FRET assay
T1 sequence (Q92731 whole entry): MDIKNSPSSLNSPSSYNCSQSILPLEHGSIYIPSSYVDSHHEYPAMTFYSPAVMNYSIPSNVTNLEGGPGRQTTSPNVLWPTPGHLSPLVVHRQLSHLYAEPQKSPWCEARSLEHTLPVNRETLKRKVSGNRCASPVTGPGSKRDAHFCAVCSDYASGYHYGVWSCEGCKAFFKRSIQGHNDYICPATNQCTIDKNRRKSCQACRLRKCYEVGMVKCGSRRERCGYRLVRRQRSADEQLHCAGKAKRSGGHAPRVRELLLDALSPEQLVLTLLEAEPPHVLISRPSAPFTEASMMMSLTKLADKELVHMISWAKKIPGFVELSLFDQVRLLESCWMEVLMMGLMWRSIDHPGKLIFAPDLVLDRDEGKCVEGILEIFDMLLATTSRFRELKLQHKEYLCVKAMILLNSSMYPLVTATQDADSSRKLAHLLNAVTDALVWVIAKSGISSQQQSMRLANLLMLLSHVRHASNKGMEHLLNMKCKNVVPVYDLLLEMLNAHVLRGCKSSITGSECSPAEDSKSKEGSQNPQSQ

[2] = biological target: T1, Estrogen receptor beta; experiment: Antagonist activity at recombinant human GST-tagged ERbeta assessed as inhibition of E2-induced increase in fluorescein-labelled coactivator PGC1 peptide recruitment at 100 nM measured after 30 mins by LanthaScreen TR-FRET assay relative to control; settings: filed as antagonist
[3] = biological target: T2, Estrogen receptor (Homo sapiens, UniProt P03372); experiment: Agonist activity at ERalpha (unknown origin) expressed in human U2OS cells at 0.1 to 1 uM measured after 21 hrs by dual luciferase reporter gene assay; type: cell-based; settings: dose 0.1-1 µM
T2 sequence (P03372 whole entry): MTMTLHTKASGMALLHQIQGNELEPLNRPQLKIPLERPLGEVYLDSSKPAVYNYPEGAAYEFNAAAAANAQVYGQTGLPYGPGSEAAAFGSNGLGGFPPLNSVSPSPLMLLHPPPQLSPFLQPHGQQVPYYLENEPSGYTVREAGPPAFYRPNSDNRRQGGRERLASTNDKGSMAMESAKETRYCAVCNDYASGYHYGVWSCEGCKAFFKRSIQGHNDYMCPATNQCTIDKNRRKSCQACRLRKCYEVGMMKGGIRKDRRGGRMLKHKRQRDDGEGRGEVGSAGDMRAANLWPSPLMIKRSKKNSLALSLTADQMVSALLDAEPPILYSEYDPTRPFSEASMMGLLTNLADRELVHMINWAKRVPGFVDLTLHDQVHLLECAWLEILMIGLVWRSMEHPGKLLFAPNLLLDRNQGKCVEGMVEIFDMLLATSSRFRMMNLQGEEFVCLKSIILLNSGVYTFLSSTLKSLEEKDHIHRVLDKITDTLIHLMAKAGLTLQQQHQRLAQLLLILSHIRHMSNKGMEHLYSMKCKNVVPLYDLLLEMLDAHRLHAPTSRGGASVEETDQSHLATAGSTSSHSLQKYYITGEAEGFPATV

[4] = biological target: T1, Estrogen receptor beta; experiment: Agonist activity at ERbeta (unknown origin) expressed in human U2OS cells at 0.1 to 1 uM measured after 21 hrs by dual luciferase reporter gene assay; type: cell-based; settings: dose 0.1-1 µM
[5] = tested on: MCF7; experiment: Antiproliferative activity against human MCF7 cells assessed as reduction in cell metabolic activity at 10 uM measured after 72 hrs by modified MTT based EZ4U assay relative to control; type: functional; parameters: scale not given: the % may be the effect or the level left
[6] = tested on: COS-7; experiment: Cytotoxicity against African green monkey COS7 cells assessed as reduction in cell metabolic activity up to 10 uM measured after 72 hrs by modified MTT based EZ4U assay; type: ADME; settings: chlorocebus aethiops, cos-7, 72 h
[7] = biological target: T2, Estrogen receptor
[8] = biological target: T1, Estrogen receptor beta
[9] = biological target: T2, Estrogen receptor; remark: listed apart in the source
[10] = biological target: T1, Estrogen receptor beta; remark: listed apart in the source
[11] = physchem; settings: water
Description: Aqueous solubility of compound in water

[12] = Drug uptake in human MCF7 cells assessed per mg protein at 10 uM incubated for 24 hrs by fluorescence assay; type: ADME, cell-based; settings: mcf7, 24 h
[13] = biological target: T1, Estrogen receptor beta; experiment: Antagonist activity at recombinant human GST-tagged ERbeta assessed as inhibition of E2-induced increase in fluorescein-labelled coactivator PGC1 peptide recruitment at 1 uM measured after 10 to 30 mins by LanthaScreen TR-FRET assay relative to control; settings: filed as antagonist, time 10-30 min
[14] = Drug uptake in African green monkey COS7 cells assessed per mg protein at 10 uM incubated for 24 hrs by fluorescence assay; type: ADME; settings: chlorocebus aethiops, cos-7, 24 h
[15] = tested on: COS-7; experiment: Cytotoxicity against African green monkey COS7 cells assessed as reduction in cell metabolic activity up to 20 uM measured after 72 hrs by modified MTT based EZ4U assay; type: ADME; settings: chlorocebus aethiops, cos-7, 72 h
[16] = tested on: MCF7; experiment: Antiproliferative activity against human MCF7 cells assessed as cell mass at 10 uM measured after 72 hrs by crystal violet staining based assay relative to control; type: functional
[17] = tested on: MCF7; experiment: Antiproliferative activity against human MCF7 cells assessed as cell mass at 50 nM measured after 72 hrs by crystal violet staining based assay relative to control; type: functional
[18] = tested on: MCF7; experiment: cells; settings: Homo sapiens, MCF7, 72 h
Description: Antiproliferative activity against human MCF7 cells assessed as reduction in cell mass measured after 72 hrs by crystal violet staining based assay

[19] = tested on: COS-7; experiment: cells; settings: Chlorocebus aethiops, COS-7, 72 h
Description: Cytotoxicity against African green monkey COS7 cells assessed as reduction in cell mass measured after 72 hrs by crystal violet staining based assay

[20] = biological target: T1, Estrogen receptor beta; experiment: Antagonist activity at recombinant human GST-tagged ERbeta assessed as inhibition of E2-induced increase in fluorescein-labelled coactivator PGC1 peptide recruitment at 1 uM measured after 10 mins by LanthaScreen TR-FRET assay; settings: filed as antagonist
[21] = biological target: T1, Estrogen receptor beta; experiment: Antagonist activity at recombinant human GST-tagged ERbeta assessed as inhibition of E2-induced increase in fluorescein-labelled coactivator PGC1 peptide recruitment at 5 uM measured after 30 mins by LanthaScreen TR-FRET assay relative to control; settings: filed as antagonist
[22] = biological target: T3, Estrogen receptor (Homo sapiens) (UniProt P03372); experiment: Selective estrogen receptor alpha degrader activity in human MCF7 cells assessed as down regulation of ERalpha expression at 1 uM measured after 4 hrs in presence of protease inhibitor MG-132 by Western blot analysis; type: cell-based
T3 sequence (whole entry): T2 sequence (P03372 whole entry)

[23] = tested on: MCF7; experiment: Antiproliferative activity against human MCF7 cells assessed as reduction in cell metabolic activity up to 10 uM measured after 72 hrs by modified MTT based EZ4U assay; type: functional; settings: dose microM <=10, time 72.0 hrs
[24] = tested on: MDA-MB-231; experiment: Antiproliferative activity against human MDA-MB-231 cells assessed as reduction in cell mass at 10 uM measured after 72 hrs by crystal violet staining based assay relative to control; type: functional; parameters: scale not given: the % may be the effect or the level left
[25] = tested on: SK-BR-3; experiment: Antiproliferative activity against human SK-BR-3 cells assessed as reduction in cell mass at 10 uM measured after 72 hrs by crystal violet staining based assay relative to control; type: functional; parameters: scale not given: the % may be the effect or the level left
[26] = tested on: MDA-MB-231; experiment: Antiproliferative activity against human MDA-MB-231 cells assessed as cell mass at 20 uM measured after 72 hrs by crystal violet staining based assay relative to control; type: functional
[27] = tested on: SK-BR-3; experiment: Antiproliferative activity against human SK-BR-3 cells assessed as cell mass at 20 uM measured after 72 hrs by crystal violet staining based assay relative to control; type: functional

Structure (SMILES) | Activity [1] | Activity [3] | Activity [4] | IC50 [7] [nM] | IC50 [8] [nM] | IC50 [9] [nM] | IC50 [10] [nM] | solubility [11] [µM] | inhibition [2] [%] | Activity [6] | Activity [15] | other results
O=C(/C=C/c1ccc(C(=C2CCCCC2)c2ccc(O)cc2)cc1)NCCCNC(=O)/C=C/c1ccc(C(=C2CCCCC2)c2ccc(O)cc2)cc1 | Not Active | Not Active | Not Active | 1.67 | 34 | 565 | 304 | 15.4 (≈ 10.9 µg/mL) | 50 | Non-Toxic | – | Activity [5]: 53%
C[C@]12CC[C@@H]3c4ccc(O)cc4C[C@@H](CCCCCCCCC[S+]([O-])CCCC(F)(F)C(F)(F)F)[C@H]3[C@@H]1CC[C@@H]2O (some centres undefined) [FULVESTRANT] | – | – | – | – | – | – | – | – | – | – | Non-Toxic | T/C [16]: 75.5%; T/C [17]: 64%; IC50 [18]: 4930 nM; IC50 [19]: 34000 nM
CC/C(=C(\c1ccc(O)cc1)c1ccc(/C=C/C(=O)O)cc1)c1ccccc1 | – | – | – | – | – | – | – | – | – | Non-Toxic | – | inhibition [20]: Active; inhibition [21]: 50%; Activity [22]: inactive; T/C [16]: 33%; Activity [23]: inactive
O=C(/C=C/c1ccc(C(=C2CCCCC2)c2ccc(O)cc2)cc1)NCCCCCNC(=O)/C=C/c1ccc(C(=C2CCCCC2)c2ccc(O)cc2)cc1 | – | – | – | – | – | – | – | 10 (≈ 7.35 µg/mL) | – | Non-Toxic | – | Activity [5]: 50%
CC/C(=C(/c1ccc(O)cc1)c1ccc(OCCN(C)C)cc1)c1ccccc1 | – | – | – | – | – | – | – | – | – | – | Non-Toxic | Activity [24]: 79%; Activity [25]: 58%; T/C [26]: -80%; T/C [27]: -81%; IC50 [18]: 4940 nM; IC50 [19]: 8690 nM
O=C(/C=C/c1ccc(C(=C2CCCCC2)c2ccc(O)cc2)cc1)NCCCCNC(=O)/C=C/c1ccc(C(=C2CCCCC2)c2ccc(O)cc2)cc1 | Not Active | – | Not Active | – | 15.7 | – | 54.8 | 10 (≈ 7.21 µg/mL) | 50 | Non-Toxic | – | Drug uptake [12]: 5.22 nmol; Drug uptake [14]: 11.7 nmol; Activity [5]: 69%

Second part, led by results:

Activity [1] | Activity [3] | Activity [4] | IC50 [7] [nM] | IC50 [8] [nM] | IC50 [9] [nM] | IC50 [10] [nM] | solubility [11] [µM] | Structure (SMILES) | inhibition [2] [%] | Activity [6] | Activity [15] | other results
Not Active | – | Not Active | – | 27.5 | – | 216 | 6.5 (≈ 4.5 µg/mL) | O=C(/C=C/c1ccc(C(=C2CCCCC2)c2ccc(O)cc2)cc1)NCCNC(=O)/C=C/c1ccc(C(=C2CCCCC2)c2ccc(O)cc2)cc1 | – | – | – | –
Not Active | Not Active | Not Active | 18.9 | 44 | 290 | 215 | 19 (≈ 15.1 µg/mL) | CC/C(=C(/c1ccc(O)cc1)c1ccc(/C=C/C(=O)NCCCCNC(=O)/C=C/c2ccc(/C(=C(\CC)c3ccccc3)c3ccc(O)cc3)cc2)cc1)c1ccccc1 | 50 | – | Non-Toxic | Drug uptake [12]: 4.67 nmol; inhibition [13]: 100%; Drug uptake [14]: 3.92 nmol
Not Active | – | Not Active | – | 15.5 | – | 256 | 34 (≈ 27.4 µg/mL) | CC/C(=C(/c1ccc(O)cc1)c1ccc(/C=C/C(=O)NCCCCCNC(=O)/C=C/c2ccc(/C(=C(\CC)c3ccccc3)c3ccc(O)cc3)cc2)cc1)c1ccccc1 | – | – | – | –
– | Not Active | – | – | – | – | – | – | CC/C(=C(/c1ccc(O)cc1)c1ccc(/C=C/C(=O)NCCN)cc1)c1ccccc1.O=C(O)C(F)(F)F.O=C(O)C(F)(F)F.O=C(O)C(F)(F)F | – | – | Non-Toxic | Drug uptake [12]: 35.3 nmol; Drug uptake [14]: 33.7 nmol
Not Active | Not Active | Not Active | 1.28 | 22.2 | 136 | 153 | 24 (≈ 18.7 µg/mL) | CC/C(=C(/c1ccc(O)cc1)c1ccc(/C=C/C(=O)NCCCNC(=O)/C=C/c2ccc(/C(=C(\CC)c3ccccc3)c3ccc(O)cc3)cc2)cc1)c1ccccc1 | 50 | – | – | inhibition [13]: 100%; Activity [22]: Active
Not Active | Not Active | Not Active | 15.1 | 67.7 | 260 | 78.7 | > 40 | CC/C(=C(/c1ccc(O)cc1)c1ccc(/C=C/C(=O)NCCNC(=O)/C=C/c2ccc(/C(=C(\CC)c3ccccc3)c3ccc(O)cc3)cc2)cc1)c1ccccc1 | – | – | Non-Toxic | –
